Experimental findings from US10487088B2, “Tricyclic compound serving as immunomodulator” (Chia Tai Tianqing Pharmaceutical Group Co., Ltd., priority 2016, dated 2019) are described below.

Assay [1] concerns the target T1, recombinant human IDO1 enzyme (Homo sapiens, UniProt P14902).
T1 construct: purchased NTRC NTRC-hlDO-10K
Nature of the assay: In vitro hIDO1 enzyme activity test (NFK Green fluorescence). The format is biochemical. The following applies: recombinant human IDO1, L-tryptophan substrate, pH 6.5. The essentials:
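Recombinant human IDO1 diluted to 20 nM in pH 6.5 phosphate buffer with ascorbate, catalase and methylene blue, preincubated with compound 30 min at 23° C, then L-tryptophan added (400 μM solution) for 90 min. NFK Green developed 4 h at 37° C (Ex 400/Em 510 nm); IC50 from 10-point 3-fold series, no-enzyme wells as 100% inhibition.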

Assay [2] addresses T2, IDO1 enzyme in Hela cells (Homo sapiens, UniProt P14902).
T2 construct: recombinant human γ-interferon was added at a final concentration of 100 ng/mL to induce IDO1 expression; endogenous in cells; host or cells: Hela cells, induced with recombinant human γ-interferon
Nature of the assay: hIDO1 cytological activity assay (kynurenine in Hela cells by LC-MS). The assay is classed as cell-based. To be noted: Hela cells induced with 100 ng/mL recombinant human γ-interferon, 20 h, read-out: IC50 hIDO1 Cytoactive. The procedure:
The change of kynurenine in Hela cells was detected by the LC-MS method, and the IC50 value of the compound was used as an index, to evaluate the inhibitory effect of the compound on IDO1 enzyme.
A medium, trypsin and DPBS were pre-heated in a 37° C. water bath. The medium for cell culture was sucked out and washed with 10 mL of DPBS; then the pre-heated trypsin was added into the culture flask, and the flask was rotated to allow the trypsin to uniformly cover it, and then placed in a 37° C., 5% CO2 incubator and digested for 1-2 min; in each T150, cells were dispersed with 10-15 mL of medium, centrifuged at 800 rpm for 5 min, and then resuspended in 10 mL of medium; 1 mL of cell suspension was pipetted and the cells were counted with Vi-cell; Hela cells were diluted with medium to 5×10^5/mL, 80 μL of the solution was added to a 96-cell plate, and cultured at 37° C. for 5-6 h in a 5% CO2 incubator.
The compound was diluted to 1 mM in DMSO, and then diluted 3-fold in duplicate wells, with 9 gradients. 5 μL of the diluted solution of the compound in DMSO was added to the compound plate containing 95 μL of the medium, and mixed, followed by transferring 10 μL of the mixture to a cell plate.
10 μL of recombinant human γ-interferon was added at a final concentration of 100 ng/mL to induce IDO1 expression. The cells were incubated at 37° C. for 20 h in a 5% CO2 incubator. 4 μL of 5% (w/v) trichloroacetic acid was added thereto, mixed and incubated at 50° C. for 30 min. After centrifugation at 2400 rpm for 10 min, 40 μL of the supernatant was taken and placed in a 96-well V-bottom plate, and then a precipitant was added in the plate. After mixing, the mixture was centrifuged at 4000 rpm for 10 min. 100 μL of the supernatant was transferred to a new 96-well V-bottom plate. The content of kynurenine was determined by LC-MS.
The control wells having γ-interferon but no compound was set as 0% inhibition, and the control wells without Hela cell was set as 100% inhibition, and the IC50 value of the compound was calculated by analyzing the data with XLFit 5.

A further assay deals with IDO1 (Mus musculus, UniProt P28776). Nature of the assay: In vivo pharmacodynamics of IDO1: Kyn level in lung and plasma of LPS-induced C57BL/6 mice.

Structures are written as SMILES. “Also recorded” adds a separate entry of the source.

T1 sequence (P14902 whole entry): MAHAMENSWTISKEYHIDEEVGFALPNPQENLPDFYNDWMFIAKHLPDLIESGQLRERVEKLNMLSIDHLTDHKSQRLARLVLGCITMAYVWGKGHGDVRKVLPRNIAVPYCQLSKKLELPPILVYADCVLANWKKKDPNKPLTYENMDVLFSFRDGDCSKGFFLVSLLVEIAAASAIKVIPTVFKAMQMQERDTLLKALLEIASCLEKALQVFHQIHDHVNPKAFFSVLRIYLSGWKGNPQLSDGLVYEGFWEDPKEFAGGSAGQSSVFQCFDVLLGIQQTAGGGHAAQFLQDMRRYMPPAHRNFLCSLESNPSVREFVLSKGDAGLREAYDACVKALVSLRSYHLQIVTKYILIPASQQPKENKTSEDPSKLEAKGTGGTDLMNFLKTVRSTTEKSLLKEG
T2 sequence (P14902 whole entry): as above
IDO1, sequence (P28776 whole entry): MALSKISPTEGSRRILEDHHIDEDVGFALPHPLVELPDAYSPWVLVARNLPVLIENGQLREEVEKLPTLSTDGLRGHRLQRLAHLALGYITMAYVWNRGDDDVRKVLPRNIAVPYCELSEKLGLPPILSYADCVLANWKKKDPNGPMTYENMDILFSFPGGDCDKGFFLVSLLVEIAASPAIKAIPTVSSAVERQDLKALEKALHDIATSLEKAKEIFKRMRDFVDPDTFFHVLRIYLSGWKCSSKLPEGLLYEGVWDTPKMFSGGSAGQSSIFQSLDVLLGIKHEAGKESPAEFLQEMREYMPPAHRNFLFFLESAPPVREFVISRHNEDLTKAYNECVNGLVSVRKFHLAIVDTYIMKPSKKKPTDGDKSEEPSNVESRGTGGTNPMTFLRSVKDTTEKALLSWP

The term IC50 denotes the concentration that gives 50% inhibition. Regarding `OC(CC1c2sccc2-c2cncn21)C1CCCCC1` (single isomer, unassigned) [Example 7, cyclohexyl-2-(8H-thieno[3′,2′:3,4]pyrrolo[1,2-c]imidazol-8-yl)ethanol], the results for the IC50 in assay [1] and in assay [2] were 7.22 nM and 5.08 nM, respectively. In addition, on IDO1 (50 mg/kg orally at 0, 12 h and 24 h after induction, plasma 1-6 h, lung 2 h and 6 h after last administration), the “in vivo activity of IDO1 / reduction of the Kyn level in lung and plasma” value is “effectively inhibited in vivo activity of IDO1 and caused reduction of the Kyn level in lung and plasma”. In addition, the “degree of Kyn level reduction in lung and plasma compared to NLG919” value on IDO1 (50 mg/kg orally, comparison with NLG919 at same dose, 50 mg/kg) is “more significant than that of NLG919; also recorded: significantly reduced the Kyn level in lung and plasma”.
Take `FC1(F)[C@@H]2C[C@@H](C3c4sccc4-c4cncn43)C[C@@H]21` (single isomer, unassigned) [Example 63, 8-[6,6-difluoro-3-bicyclo[3.1.0]cyclohexyl]-8H-thieno[3,4]pyrrolo[1,5-a]imidazole (trans)]: the IC50 in assay [1] was 8800 nM; in assay [2], greater than 5000 nM.
For `c1cc2c(s1)C(C1CCCCCC1)n1cncc1-2` (single isomer, unassigned) [Example 72, 8-cycloheptyl-8H-thieno[3,4]pyrrolo[1,5-a]imidazole], in that order: 99.9 nM and 223 nM.
The like results for `c1cc2c(s1)C(C1CCCCCC1)n1cncc1-2` (single isomer, unassigned) [Example 73, 8-cycloheptyl-8H-thieno[3,4]pyrrolo[1,5-a]imidazole] were, in that order, greater than 10000 nM and greater than 5000 nM.
As for `FC1(F)C2CC(C3c4sccc4-c4cncn43)CC21` (single isomer, unassigned) [Example 77, 8-(6,6-difluoro-3-bicyclo[3.1.0]cyclohexyl)-8H-thieno[3,4]pyrrolo[1,5-a]imidazole (cis)], the half-maximal inhibitory concentration (IC50) in assay [1] was 37 nM; in assay [2], 125 nM.
For `OC1CCCCC1C1c2sccc2-c2cncn21` (single isomer, unassigned) [Example 85], in that order: 27.2 nM and 159 nM.
The like results for `OC1CCC(C2c3sccc3-c3cncn32)CC1` (single isomer, unassigned) [Example 117, 4-(8H-thieno[3,4]pyrrolo[1,5-a]imidazol-8-yl)-cyclohexanol] were, in that order, 215 nM and 891 nM.
For `CC(C)(C(O)C1CCCCC1)C1c2sccc2-c2cncn21` (single isomer, unassigned) [Example 119, 1-cyclohexyl-2-methyl-2-(8H-thieno[3,4]pyrrolo[1,5-a]imidazol-8-yl)-propan-1-ol], in that order: 390 nM and 1980 nM.
With `OC(CC1c2ccsc2-c2cncn21)C1CCCCC1` (stereo not drawn) [Example 4, 1-cyclohexyl-2-(4H-thieno[3,4]pyrrolo[1,5-a]imidazol-4-yl)ethanol], the figures for the IC50 in assay [1] and in assay [2] were 83.6 nM and 613 nM, respectively.
As to `FC1(CCC2c3sccc3-c3cncn32)CCCCC1` (stereo not drawn) [Example 39, 8-(2-(1-fluorocyclohexyl)ethyl)-8H-thieno[3′,2′:3,4]pyrrolo[1,2-c]imidazole], the IC50 amounted to 46 nM in assay [1] and 90.5 nM in assay [2].
For `O[C@@H](C[C@H]1c2sccc2-c2cncn21)C1CCC(F)(F)CC1` [Example 46, (1S)-1-(4,4-difluorocyclohexyl)-2-((S)-8H-thieno[3,4]pyrrolo[1,5-a]imidazol-8-yl)ethanol], the IC50 was 11.4 nM in assay [1] and 28 nM in assay [2].
